One assay has as its target Carbonic anhydrase 2 (Homo sapiens, UniProt P00918). As to the kind of experiment: Inhibition of human CA2 preincubated for 15 mins by stopped flow CO2 hydration assay.
The next assay has as its target Carbonic anhydrase 1 (Homo sapiens, UniProt P00915). The experiment in a line: Inhibition of human CA1 preincubated for 15 mins by stopped flow CO2 hydration assay.
The next assay addresses Carbonic anhydrase 12 (Homo sapiens, UniProt O43570). As to the kind of experiment: Inhibition of human CA12 preincubated for 15 mins by stopped flow CO2 hydration assay.

Sequence of Carbonic anhydrase 1 (P00915 whole entry): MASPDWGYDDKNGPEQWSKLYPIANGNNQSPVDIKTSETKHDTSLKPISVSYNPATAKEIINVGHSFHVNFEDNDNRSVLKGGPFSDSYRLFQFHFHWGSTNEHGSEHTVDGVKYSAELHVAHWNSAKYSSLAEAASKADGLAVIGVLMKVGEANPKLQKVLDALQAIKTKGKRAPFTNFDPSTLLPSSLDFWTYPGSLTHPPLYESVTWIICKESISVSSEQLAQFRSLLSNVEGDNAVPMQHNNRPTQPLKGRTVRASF
Sequence of Carbonic anhydrase 12 (O43570 whole entry): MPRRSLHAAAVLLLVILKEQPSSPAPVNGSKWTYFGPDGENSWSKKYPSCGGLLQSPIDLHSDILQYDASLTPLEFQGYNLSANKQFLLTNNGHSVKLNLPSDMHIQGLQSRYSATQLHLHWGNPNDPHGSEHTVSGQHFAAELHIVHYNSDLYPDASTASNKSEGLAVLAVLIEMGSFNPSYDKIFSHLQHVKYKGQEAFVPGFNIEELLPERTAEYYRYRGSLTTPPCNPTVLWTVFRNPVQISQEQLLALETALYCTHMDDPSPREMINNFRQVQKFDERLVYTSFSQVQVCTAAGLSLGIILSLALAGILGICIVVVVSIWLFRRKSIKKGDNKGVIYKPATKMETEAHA

In the case of `NS(=O)(=O)c1ccc(CCn2c(=S)[nH]c3ccc(F)cc3c2=O)cc1`, the Ki (in general, a measure of affinity in units of concentration, obtained from inhibition or displacement) at Carbonic anhydrase 2 is 12.4 nM; at Carbonic anhydrase 1, 212 nM; at Carbonic anhydrase 12, 0.62 nM.

For the origin of these results see ChEMBL document CHEMBL3826922, “Synthesis 4-[2-(2-mercapto-4-oxo-4H-quinazolin-3-yl)-ethyl]-benzenesulfonamides with subnanomolar carbonic anhydrase II and XII inhibitory properties” (Bioorg Med Chem, 2016).
